Test results from patent publication US20090306218A1, “Antimicrobial formulations” (priority 2006, published 2009).
Like-named read-outs stand apart in the source and are kept apart here.

What was measured:
[1] = system: Propionibacterium acnes NCTC 737; test: Disc diffusion assay (DDA); type: cell-based; settings: for zone of inhibition at 200 µg/disc: Cutibacterium acnes, NCTC737, read-out: DDA (zone of inhibition diameter); for DDA (zone of inhibition diameter): P. acnes NCTC 737
Procedure: (d) Disc Diffusion Assay (DDA)
This is an internationally recognised standard method for qualitatively assessing the antimicrobial activity of a compound.
A sterile paper disc was impregnated with a sample of the test compound in a suitable solvent and 30 minutes allowed for the solvents to evaporate (where possible). The disc was then placed on an agar plate onto which the test micro-organism had been inoculated. The plate was then incubated under the conditions described above, following which it was examined visually for signs of microbial growth. […] The diameter of this zone of “inhibition” was measured using a ProtoCOL™ automated zone sizer (Synbiosis, Cambridge, UK).
(§1) The TBHQ was dissolved in ethanol and the bismuth salts in DMSO.
(§2) All the (S)DDA experiments were conducted in triplicate.
(§3) DDA assays, as described above, were carried out using each of the test compounds individually. The quinone/bismuth salt combinations were then subjected to the SDDA assay described above.
(§4) The quinones and bismuth salts were all dissolved in DMSO.

[2] = system: Propionibacterium acnes NCTC 737; test: Minimum inhibitory concentration (MIC) assay, liquid medium; type: cell-based; settings: P. acnes NCTC 737
Procedure: (a) Minimum Inhibitory Concentration (MIC) Assay
This is a standard international method for quantitatively assessing the antimicrobial activity of a compound in a liquid medium. The method used a sterile 96-well microtitre plate, capable of holding about 200 μl of liquid per well. […] The culture medium was as described above.
After incubation, the microtitre plate was examined visually (with the aid of a light box) for cloudiness in each well, which would indicate microbial growth. The MIC value was recorded as the lowest concentration of test compound required to inhibit microbial growth, i.e., the lowest concentration for which the liquid in the well remained clear.
The assays were conducted in duplicate (minimum) and included both negative (culture medium with no micro-organisms) and positive (culture medium plus diluting solvent plus micro-organism) controls.
(§5) MIC, MBC and DDA assays, as described above, were carried out using the test compound t-butyl-p-hydroquinone (TBHQ) and a range of bismuth salts (all ex-Sigma Aldrich, UK).

[3] = system: Propionibacterium acnes NCTC 737; test: Minimum bactericidal concentration (MBC) assay; type: cell-based; settings: P. acnes NCTC 737
Procedure: (b) Minimum Bactericidal Concentration (MBC) Assay
as §5

[4] = system: Propionibacterium acnes NCTC 737; test: Synergy disc diffusion assay (SDDA); type: cell-based; settings: P. acnes NCTC 737; for SDDA with TBHQ (zone diameter): bismuth salt together with TBHQ, 200 μg of each per disc; for SDDA increase: combination with TBHQ vs the single compound with the larger zone; for SDDA area increase: combination with TBHQ
Procedure: (e) Synergy Disc Diffusion Assay (SDDA)
Each bismuth salt was then subjected, together with the TBHQ, to the SDDA assay described above.
as §1, §2, §3, §4

[5] = system: P. acnes PRP panel strains; type: cell-based, Propionibacterium acnes
[6] = system: P. granulosum panel strains; test: Agar dilution MIC assay, panel of propionibacteria; type: cell-based, Propionibacterium granulosum
[7] = 200 μg per disc (2-t-butyl-p-benzoquinone 100 μg per disc), in DMSO, Table 5
[8] = P. acnes PRP-002, resistance phenotype Tet/MLS
[9] = P. acnes PRP-003, resistance phenotype Tet
[10] = P. acnes PRP-004, resistance phenotype Tet
[11] = P. acnes PRP-007, resistance phenotype Clin
[12] = P. acnes PRP-008, resistance phenotype Clin
[13] = P. acnes PRP-010, resistance phenotype MLSK
[14] = P. acnes PRP-017, resistance phenotype MLS
[15] = P. acnes PRP-023, resistance phenotype MLSK
[16] = P. acnes PRP-026, resistance phenotype MLS
[17] = P. acnes PRP-039, resistance phenotype Tet/MLS
[18] = P. acnes PRP-046, resistance phenotype None
[19] = P. acnes PRP-053, resistance phenotype Tet/MLS
[20] = P. acnes PRP-059, resistance phenotype MLS
[21] = P. acnes PRP-068, resistance phenotype Ery
[22] = P. acnes PRP-101, resistance phenotype Tet/MLS
[23] = P. acnes PRP-102, resistance phenotype Tet/MLS
[24] = P. granulosum NCTC 11865, resistance phenotype None
[25] = P. granulosum PRP-005, resistance phenotype MLSK
[26] = P. granulosum PRP-006, resistance phenotype MLS
[27] = P. granulosum PRP-019, resistance phenotype MLSK
[28] = P. granulosum PRP-021, resistance phenotype MLS
[29] = P. granulosum PRP-043, resistance phenotype MLS
[30] = P. granulosum PRP-044, resistance phenotype MLS
[31] = P. granulosum PRP-055, resistance phenotype None

O=C1C=CC(=O)C(Cl)=C1 [2-chloro-p-benzoquinone]
zone of inhibition at 200 µg/disc [1]: 25.4 mm

CC(C)(C)C1=CC(=O)C=CC1=O [2-t-butyl-p-benzoquinone]
DDA (zone of inhibition diameter) [1, 7]: 52.61 mm

CC(=O)[O-].CC(=O)[O-].CC(=O)[O-].[Bi+3] [Bismuth acetate]
MIC ([2]; Table 1): 0.98 µg/mL
MBC ([3]; Table 1): 7.8 µg/mL
MIC/MBC ratio ([3]; Table 1): 0.125
DDA (zone of inhibition diameter) ([1]; 200 μg per disc, Table 2): 28.17 mm
SDDA with TBHQ (zone diameter) ([4]; Table 2): 34.89 mm
SDDA increase ([4]; Table 2): 6.72 mm
SDDA area increase ([4]; Table 2): 53.4%

[Cl][Bi]([Cl])[Cl] [Bismuth chloride]
MIC ([2]; Table 1): 0.49 µg/mL
MBC ([3]; Table 1): 3.9 µg/mL
MIC/MBC ratio ([3]; Table 1): 0.125
DDA (zone of inhibition diameter) ([1]; 200 μg per disc, Table 2): 26.07 mm
SDDA with TBHQ (zone diameter) ([4]; Table 2): 31.64 mm
SDDA increase ([4]; Table 2): 5.57 mm
SDDA area increase ([4]; Table 2): 47.29%

O=C([O-])CC(O)(CC(=O)[O-])C(=O)[O-].[Bi+3] [Bismuth citrate]
MIC ([2]; Table 1): 0.98 µg/mL
MBC ([3]; Table 1): 7.8 µg/mL
MIC/MBC ratio ([3]; Table 1): 0.125
DDA (zone of inhibition diameter) [1, 7]: 32.97 mm
DDA (zone of inhibition diameter) ([1]; 200 μg per disc, Table 2): 34.47 mm
SDDA with TBHQ (zone diameter) ([4]; Table 2): 43.41 mm
SDDA increase ([4]; Table 2): 8.94 mm
SDDA area increase ([4]; Table 2): 58.59%
MIC (agar dilution) [5, 8]: 7.8 µg/mL
MIC (agar dilution) [5, 9]: 3.9 µg/mL
MIC (agar dilution) [5, 10]: 7.8 µg/mL
MIC (agar dilution) [5, 11]: 3.9 µg/mL
MIC (agar dilution) [5, 12]: 3.9 µg/mL
MIC (agar dilution) [5, 13]: 7.8 µg/mL
MIC (agar dilution) [5, 14]: 3.9 µg/mL
MIC (agar dilution) [5, 15]: 3.9 µg/mL
MIC (agar dilution) [5, 16]: 3.9 µg/mL
MIC (agar dilution) [5, 17]: 0.98 µg/mL
MIC (agar dilution) [5, 18]: 3.9 µg/mL
MIC (agar dilution) [5, 19]: 3.9 µg/mL
MIC (agar dilution) [5, 20]: 7.8 µg/mL
MIC (agar dilution) [5, 21]: 7.8 µg/mL
MIC (agar dilution) [5, 22]: 7.8 µg/mL
MIC (agar dilution) [5, 23]: 7.8 µg/mL
MIC (agar dilution) [6, 24]: 7.8 µg/mL
MIC (agar dilution) [6, 25]: 7.8 µg/mL
MIC (agar dilution) [6, 26]: 7.8 µg/mL
MIC (agar dilution) [6, 27]: 7.8 µg/mL
MIC (agar dilution) [6, 28]: 7.8 µg/mL
MIC (agar dilution) [6, 29]: 3.9 µg/mL
MIC (agar dilution) [6, 30]: 7.8 µg/mL
MIC (agar dilution) [6, 31]: 7.8 µg/mL

O=[N+]([O-])[O-].O=[N+]([O-])[O-].O=[N+]([O-])[O-].O=[N+]([O-])[O-].[Bi+3].[Bi+3].[Bi+3].[Bi+3].[Bi+3].[O-2].[OH-].[OH-].[OH-].[OH-].[OH-].[OH-].[OH-].[OH-].[OH-] [Bismuth subnitrate]
MIC ([2]; separate experiment, Table 3): 3.9 µg/mL
MBC ([3]; separate experiment, Table 3): 7.8 µg/mL
MIC/MBC ratio ([3]; separate experiment, Table 3): 0.5
DDA (zone of inhibition diameter) [1, 7]: 24.91 mm
DDA (zone of inhibition diameter) ([1]; 200 μg per disc, separate experiment, Table 4): 24.91 mm
SDDA with TBHQ (zone diameter) ([4]; Table 4): 30.39 mm
SDDA increase ([4]; Table 4): 5.48 mm
SDDA area increase ([4]; Table 4): 48.84%
MIC (agar dilution) [5, 8]: 7.8 µg/mL
MIC (agar dilution) [5, 9]: 7.8 µg/mL
MIC (agar dilution) [5, 10]: 7.8 µg/mL
MIC (agar dilution) [5, 11]: 7.8 µg/mL
MIC (agar dilution) [5, 12]: 7.8 µg/mL
MIC (agar dilution) [5, 13]: 7.8 µg/mL
MIC (agar dilution) [5, 14]: 7.8 µg/mL
MIC (agar dilution) [5, 15]: 7.8 µg/mL
MIC (agar dilution) [5, 16]: 7.8 µg/mL
MIC (agar dilution) [5, 17]: 7.8 µg/mL
MIC (agar dilution) [5, 18]: 7.8 µg/mL
MIC (agar dilution) [5, 19]: 7.8 µg/mL
MIC (agar dilution) [5, 20]: 7.8 µg/mL
MIC (agar dilution) [5, 21]: 7.8 µg/mL
MIC (agar dilution) [5, 22]: 7.8 µg/mL
MIC (agar dilution) [5, 23]: 7.8 µg/mL
MIC (agar dilution) [6, 24]: 7.8 µg/mL
MIC (agar dilution) [6, 25]: 7.8 µg/mL
MIC (agar dilution) [6, 26]: 7.8 µg/mL
MIC (agar dilution) [6, 27]: 7.8 µg/mL
MIC (agar dilution) [6, 28]: 7.8 µg/mL
MIC (agar dilution) [6, 29]: 7.8 µg/mL
MIC (agar dilution) [6, 30]: 7.8 µg/mL
MIC (agar dilution) [6, 31]: 7.8 µg/mL

CC1=CC(=O)C=CC1=O [Methyl-p-benzoquinone]
zone of inhibition at 200 µg/disc [1]: 39.9 mm
